In data set [1] the test system is absolute neutrophil count (ANC) and sputum neutrophil count. On the set-up: method as in PMID 25695403, PMID 22702508. The conditions noted are these: patients with chronic obstructive pulmonary disease and asthma; ref [10], [11]; cited from earlier work.
The subject of data set [2] is pancreatic ductal adenocarcinoma cells. Details: method as in PMID 30396947, PMID 29749433. The conditions noted are these: ref [15], [16]; cited from earlier work.
In data set [3] the test system is triple-negative breast cancer cells. Details: method as in PMID 30396947, PMID 29749433. The conditions noted are these: ref [15], [16]; cited from earlier work.
The nature of data set [4]: Navarixin pharmacokinetics in combination with pembrolizumab. It counts as in vivo, human. The conditions noted are these: for tlast: median (range); for AUC(0-inf) / AUC(0-t) / Cmax: human, plasma, oral, geometric mean (% geometric CV); for Geometric mean trough concentration: all tumor types combined. From the text: Primary endpoints were objective response rate (ORR; proportion of patients with confirmed complete or partial response) by RECIST v1.1 as assessed by the investigator and safety based on the occurrence of dose-limiting toxicities (DLTs), adverse events (AEs), and treatment discontinuations because of AEs. Secondary endpoints included investigator-assessed ORR by immune-related RECIST (iRECIST), investigator-assessed progression-free survival (PFS; time from first dose of study drug until the first documented disease progression or death from any cause) by RECIST v1.1 and iRECIST, overall survival (OS; time from first dose of study drug until death from any cause), pharmacodynamics (assessed via changes in ANC), and PK of navarixin when administered in combination with pembrolizumab.
Blood samples for assessment of ANC were collected predose on day 1 of every cycle; between 6 and 12 hours after dosing on days 1, 3, and 8 of cycle 1; and between 6 and 12 hours after dosing on day 1 of cycle 2. Blood samples for assessment of navarixin pharmacokinetic parameters were collected predose and at 1, 2, 4, 6, and between 8 and 12 hours after dosing on day 1 of cycle 1; predose and between 6 and 12 hours after dosing on days 3 and 8 of cycle 1; predose and at 1, 2, 4, 6, and between 8 and 12 hours after dosing on day 1 of cycle 2; and predose during cycles 3 and 4. […]

Data set [5] deals with liver metastases. Details: method as in PMID 21035946. The conditions noted are these: liver metastases in vivo; ref [17]; cited from earlier work.
For data set [6], the system named is melanoma. The conditions noted are these: melanoma in vivo; ref [13], [14]; cited from earlier work.
Data set [7] deals with metastatic castration-resistant prostate cancer (CRPC) preclinical models. Details: method as in PMID 31801883. The conditions noted are these: ref [6]; cited from earlier work.
For data set [8], the system named is CRC. The conditions noted are these: CRC in vivo; ref [13], [14]; cited from earlier work.
The subject of data set [9] is metastatic triple-negative breast cancer. Details: method as in PMID 34476645. The conditions noted are these: in combination with paclitaxel; ref [35]; cited from earlier work.
In data set [10] the test system is previously treated advanced NSCLC. Details: method as in PMID 31154919. The conditions noted are these: pembrolizumab monotherapy; previously treated advanced NSCLC cohort; 103/449; ref [24]; cited from earlier work.
The subject of data set [11] is treatment-refractory metastatic CRPC. On the set-up: method as in PMID 31774688. The conditions noted are these: pembrolizumab monotherapy, 9/199, ref [22]; cited from earlier work.
Data set [12] has as its system mismatch repair–proficient CRC. Details: method as in PMID 26028255. The conditions noted are these: 18 patients with mismatch repair–proficient CRC; ref [21]; cited from earlier work.
Setting [13] is: CRPC, navarixin 30 mg + pembrolizumab 200 mg, Cycle 1 day 1, n=20.
Where [14] appears, read: CRPC, navarixin 30 mg + pembrolizumab 200 mg, Cycle 2 day 1 (steady state), n=18.
Where [15] appears, read: CRPC, navarixin 100 mg + pembrolizumab 200 mg, Cycle 1 day 1, n=20.
[16] abbreviates: CRPC, navarixin 100 mg + pembrolizumab 200 mg, Cycle 2 day 1 (steady state), n=17.
Setting [17] is: MSS CRC, navarixin 30 mg + pembrolizumab 200 mg, Cycle 1 day 1, n=19.
Setting [18] is: MSS CRC, navarixin 30 mg + pembrolizumab 200 mg, Cycle 2 day 1 (steady state), n=15.
Setting [19] is: MSS CRC, navarixin 100 mg + pembrolizumab 200 mg, Cycle 1 day 1, n=21.
Where [20] appears, read: MSS CRC, navarixin 100 mg + pembrolizumab 200 mg, Cycle 2 day 1 (steady state), n=18.
[21] abbreviates: NSCLC, navarixin 30 mg + pembrolizumab 200 mg, Cycle 1 day 1, n=12.
Where [22] appears, read: NSCLC, navarixin 30 mg + pembrolizumab 200 mg, Cycle 2 day 1 (steady state), n=12.
Setting [23] is: NSCLC, navarixin 100 mg + pembrolizumab 200 mg, Cycle 1 day 1, n=13.
The mark [24] stands for this setting: NSCLC, navarixin 100 mg + pembrolizumab 200 mg, Cycle 2 day 1 (steady state), n=11.

Consider `CC[C@@H](Nc1c(Nc2cccc(C(=O)N(C)C)c2O)c(=O)c1=O)c1ccc(C)o1` [Navarixin], for which the “Effect on neutrophil counts” value in [1] is “reductions in absolute neutrophil count (ANC) as well as sputum neutrophil count”. For the same compound, the “Effect on colony formation” value in [2] and in data set [3] was “inhibited colony formation” in each case. Moreover, the tlast was 8.00 (7.83–10.00) h in data set [4] (setting [13]); 8.01 (6.50–8.70) h in [4] (setting [14]); 8.00 (7.37–8.08) h in data set [4] (setting [15]); 8.00 (5.93–8.17) h in data set [4] (setting [16]); 8.0 (7.27–8.33) h in data set [4] (setting [17]); 7.93 (6.00–8.17) h in data set [4] (setting [18]). The tlast in data set [4] (setting [19]) is 8.00 (7.12–10.02) h; in [4] (setting [20]) it was 8.00 (7.87–8.13) h; in data set [4] (setting [21]), 8.00 (7.83–8.25) h; in [4] (setting [22]), 8.00 (7.80–8.08) h; in data set [4] (setting [23]), 8.00 (6.00–8.07) h; in data set [4] (setting [24]), 8.00 (6.03–8.08) h. For the same compound, the “AUC0-∞, navarixin 100 mg versus navarixin 30 mg” value in [4] (across all tumor types) is on record as “approximately 2.5 fold”. Also, the AUC(0-inf) in [4] (CRPC, navarixin 30 mg + pembrolizumab 200 mg, Cycle 1 day 1, n=19) was 376 ng·h/mL; in [4] (setting [14]) it was 534 ng·h/mL; in data set [4] (CRPC, navarixin 100 mg + pembrolizumab 200 mg, Cycle 1 day 1, n=18), 954 ng·h/mL; in [4] (CRPC, navarixin 100 mg + pembrolizumab 200 mg, Cycle 2 day 1 (steady state), n=11), 1340 ng·h/mL; in data set [4] (MSS CRC, navarixin 30 mg + pembrolizumab 200 mg, Cycle 1 day 1, n=17) it was 482 ng·h/mL; in [4] (MSS CRC, navarixin 30 mg + pembrolizumab 200 mg, Cycle 2 day 1 (steady state), n=10), 584 ng·h/mL. Further, the AUC(0-inf) in data set [4] (MSS CRC, navarixin 100 mg + pembrolizumab 200 mg, Cycle 1 day 1, n=16) is 1120 ng·h/mL; in data set [4] (MSS CRC, navarixin 100 mg + pembrolizumab 200 mg, Cycle 2 day 1 (steady state), n=9), 954 ng·h/mL; in data set [4] (NSCLC, navarixin 30 mg + pembrolizumab 200 mg, Cycle 1 day 1, n=10) it was 469 ng·h/mL; in [4] (NSCLC, navarixin 30 mg + pembrolizumab 200 mg, Cycle 2 day 1 (steady state), n=10) it was 450 ng·h/mL; in data set [4] (NSCLC, navarixin 100 mg + pembrolizumab 200 mg, Cycle 1 day 1, n=9), 1230 ng·h/mL; in data set [4] (NSCLC, navarixin 100 mg + pembrolizumab 200 mg, Cycle 2 day 1 (steady state), n=7), 1360 ng·h/mL. The AUC(0-t) in data set [4] (setting [13]) amounted to 363 ng·h/mL; in data set [4] (setting [14]) it was 457 ng·h/mL; in data set [4] (setting [15]) it was 853 ng·h/mL; in data set [4] (setting [16]), 925 ng·h/mL; in data set [4] (setting [17]), 464 ng·h/mL; in data set [4] (setting [18]), 443 ng·h/mL. Further, the AUC(0-t) in [4] (setting [19]) was found to be 1070 ng·h/mL; in data set [4] (setting [20]), 928 ng·h/mL; in data set [4] (setting [21]) it was 427 ng·h/mL; in data set [4] (setting [22]), 451 ng·h/mL; in data set [4] (setting [23]) it was 1140 ng·h/mL; in data set [4] (setting [24]), 1080 ng·h/mL. Also, the Cmax in data set [4] (setting [14]) turned out to be 191 ng/mL; in data set [4] (setting [16]), 272 ng/mL; in [4] (setting [17]) it was 162 ng/mL; in [4] (setting [18]), 147 ng/mL; in data set [4] (setting [19]), 354 ng/mL; in data set [4] (setting [20]) it was 276 ng/mL. In addition, the Cmax came out at 181 ng/mL in data set [4] (setting [21]); 179 ng/mL in data set [4] (setting [22]); 324 ng/mL in [4] (setting [23]); 338 ng/mL in data set [4] (setting [24]); 156 ng/mL in data set [4] (male, CRPC, navarixin 30 mg + pembrolizumab 200 mg, Cycle 1 day 1, n=20); 298 ng/mL in [4] (male, CRPC, navarixin 100 mg + pembrolizumab 200 mg, Cycle 1 day 1, n=20). For the same compound, the “Geometric mean trough concentration” value in [4] (navarixin 30 mg, steady state) was 7.71 ng/mL; in data set [4] (navarixin 100 mg, steady state), 14.5 ng/mL. In addition, the “Steady-state exposure, 100-mg dose compared with 30-mg dose” value in [4] (steady state) is “approximately 2.5 fold”. The “Effect on apoptosis of malignant cells” value in [5] is “induced apoptosis”. Moreover, the “Effect on tumor growth” value in data set [6] and in data set [8] was “inhibited tumor growth” each time. Further, in data set [7], the “Effect on neuroendocrine lineage plasticity and enzalutamide resistance” value is “reversed neuroendocrine lineage plasticity and enzalutamide resistance”.
With `CC(C)Cc1ccc([C@@H](C)C(=O)NS(C)(=O)=O)cc1` [reparixin], the “Benefit of combination therapy compared with paclitaxel alone” value in data set [9] is reported as “no benefit”.
With pembrolizumab, the values for the ORR in data set [10], in [11] and in data set [12] were 23%, 5% and 0%, respectively.

In general, AUC(0-inf) refers to total exposure, with the tail of the curve extrapolated. By AUC(0-t) is commonly meant exposure summed from dosing to a finite time, without extrapolation to infinity. One may read the Cmax as the peak of the concentration-time curve.

The values above are taken from publication PMC11076327, “CXCR2 antagonist navarixin in combination with pembrolizumab in select advanced solid tumors: a phase 2 randomized trial” (Investigational New Drugs, 2024).
